{
  "source": "patent US20130109712A1",
  "about": "“Statins for the Prevention or Treatment of Drug Addictions” (Universite de Poitiers, priority 2010, published 2013)",
  "key": {"cocaine-seeking behavior": {"tested_on": "cocaine-seeking behavior", "assay": "Cocaine-seeking test (extinction session) after cocaine self-administration and 20-day abstinence", "format": "in vivo, Sprague-Dawley rats", "settings": "rats, simvastatin 1 mg/kg i.p. daily for 20 days of abstinence, 3 h extinction test"}, "[1]": {"tested_on": "nicotine-seeking behavior", "assay": "Nicotine-seeking test (extinction session) after nicotine self-administration and 20-day abstinence", "format": "in vivo, Sprague-Dawley rats", "settings": "rats, simvastatin 1 mg/kg i.p. daily for 20 days of abstinence; 1 h extinction test; control approx. 100 active nose pokes", "method": "Thus, the logic of the experiment is the following: • 1) the rats acquire self-administration under similar conditions; • 2) during withdrawal from self-administration, they are separated and receive, once a day for 20 days, an injection of simvastatin (1 mg/kg i.p) or a control solution; • 3) they are tested in a drug-seeking protocol in which their responses are not reinforced by the drug. Adult male (11-12 weeks old) Sprague-Dawley rats (Janvier, France), experimentally naive at the beginning of the study, are placed in the animal house with controlled temperature and degree of humidity, and are kept in a 12-hour light/dark cycle (light active at 7 am). As soon as they arrive, the rats are placed in cages in groups of 3 for one week, before beginning the surgery, consisting of the implantation of a catheter in the jugular vein. After the surgery and during the rest of the experiment, the rats are placed in cages individually. All the experiments are carried out during the “day” phase, in accordance with EC regulations for the use of animals in research (86/609/EEC). For the nicotine, 24 self-administration sessions are carried out using a fixed ratio 1 or 3 (FR1 or FR3) schedule of reinforcement, i.e., during the sessions, respectively one or three nose pokes in the active hole deliver an i.v. injection of nicotine. […]"}},
  "data": [
    {"smiles": "CCC(C)(C)C(=O)O[C@H]1C[C@@H](C)C=C2C=C[C@H](C)[C@H](CC[C@@H]3C[C@@H](O)CC(=O)O3)[C@H]21", "note": "[simvastatin]", "values": [
      {"measurement": "reduction in cocaine-seeking behavior vs control", "setting": "cocaine-seeking behavior", "result": 45, "unit": "%"},
      {"measurement": "number of active nose pokes (drug-seeking behavior)", "setting": "cocaine-seeking behavior; control approx. 350", "result": "approximately 190 active nose pokes"},
      {"measurement": "reduction in nicotine-seeking behavior vs control", "setting": "[1]", "result": "approximately 50%"}
    ]}
  ]
}
